Assay results as given in patent US11813285B2, “Stable pharmaceutical composition comprising esomeprazole and sodium bicarbonate” (CHONG KUN DANG PHARMACEUTICAL CORP., priority 2018, dated 2023).
Like-named read-outs stand apart in the source and are kept apart here.

How the values were obtained:
[1] = Stability test of esomeprazole and omeprazole according to pH; format: physicochemical; conditions: in % (unit assumed)
Method: <Analysis method> A) Detector: UV-Visible spectrophotometer (measurement wavelength:280 nm) B) Column: Inertsil C8-3 (4.6×150 mm, 5 μm) or equivalent column C) Injection amount: 20 μl D) Flow rate: 1.5 mL/min E) Column temperature: Constant temperature near 40° C. F) Sample temperature: Constant temperature near 10° C. […] H) Mobile phase: […] The buffer solution at pH 7.6 was prepared as follows: 0.725 g of sodium dihydrogen phosphate monohydrate (NaH2PO4.H2O) and 4.472 g of anhydrous disodium hydrogen phosphate (Na2HPO4) were weighed to be put in an 1 L volumetric flask and dissolved in purified water, followed by filling the flask with purified water up to the calibration mark. 250 mL of the liquid was taken to be put in an 1 L volumetric flask, followed by filling the flask with purified water up to the calibration mark and adjusting the pH to 7.6 with phosphoric acid.

[2] = for pH of simulated gastric juice: 200 mL simulated gastric juice + 200 mL purified water, 37° C.
Method: A pH was measured according to the change of the dose of sodium bicarbonate in a solution (37° C.) where 200 mL of purified water was put in 200 mL of simulated gastric juice.

**Q.** What does the source list for `COc1ccc2[nH]c([S+]([O-])Cc3ncc(C)c(OC)c3C)nc2c1` (centres unmarked) [Omeprazole, 5-methoxy-2-[(4-methoxy-3,5-dimethyl-2-pyridinyl)methyl]sulfinyl-1H-benzimidazol]?
**A.** assay of esomeprazole and omeprazole according to pH ([1]; buffer pH 4.0, 5 min): 57.2; assay of esomeprazole and omeprazole according to pH ([1]; buffer pH 4.0, 10 min): 29.4; assay of esomeprazole and omeprazole according to pH ([1]; buffer pH 4.0, 15 min): 15.3; assay of esomeprazole and omeprazole according to pH ([1]; buffer pH 4.0, 30 min): 6.7; assay of esomeprazole and omeprazole according to pH ([1]; buffer pH 4.0, 45 min): 1.6; assay of esomeprazole and omeprazole according to pH ([1]; buffer pH 4.0, 60 min): 0.8; assay of esomeprazole and omeprazole according to pH ([1]; buffer pH 4.0, 120 min): 0.1; assay of esomeprazole and omeprazole according to pH ([1]; buffer pH 6.0, 5 min): 74.9; assay of esomeprazole and omeprazole according to pH ([1]; buffer pH 6.0, 10 min): 74.2; assay of esomeprazole and omeprazole according to pH ([1]; buffer pH 6.0, 15 min): 71.7; assay of esomeprazole and omeprazole according to pH ([1]; buffer pH 6.0, 30 min): 69.6; assay of esomeprazole and omeprazole according to pH ([1]; buffer pH 6.0, 45 min): 65.4; assay of esomeprazole and omeprazole according to pH ([1]; buffer pH 6.0, 60 min): 64.1; assay of esomeprazole and omeprazole according to pH ([1]; buffer pH 6.0, 120 min): 55.1; assay of esomeprazole and omeprazole according to pH ([1]; buffer pH 6.8, 5 min): 91.5; assay of esomeprazole and omeprazole according to pH ([1]; buffer pH 6.8, 10 min): 90.5; assay of esomeprazole and omeprazole according to pH ([1]; buffer pH 6.8, 15 min): 89.9; assay of esomeprazole and omeprazole according to pH ([1]; buffer pH 6.8, 30 min): 89.8; assay of esomeprazole and omeprazole according to pH ([1]; buffer pH 6.8, 45 min): 88.8; assay of esomeprazole and omeprazole according to pH ([1]; buffer pH 6.8, 60 min): 88.3; assay of esomeprazole and omeprazole according to pH ([1]; buffer pH 6.8, 120 min): 85.5; assay of esomeprazole and omeprazole according to pH ([1]; buffer pH 7.0, 5 min): 100.5; assay of esomeprazole and omeprazole according to pH ([1]; buffer pH 7.0, 10 min): 99.0; assay of esomeprazole and omeprazole according to pH ([1]; buffer pH 7.0, 15 min): 98.9; assay of esomeprazole and omeprazole according to pH ([1]; buffer pH 7.0, 30 min): 98.2; assay of esomeprazole and omeprazole according to pH ([1]; buffer pH 7.0, 45 min): 97.9; assay of esomeprazole and omeprazole according to pH ([1]; buffer pH 7.0, 60 min): 97.5; assay of esomeprazole and omeprazole according to pH ([1]; buffer pH 7.0, 120 min): 95.8; assay of esomeprazole and omeprazole according to pH ([1]; buffer pH 7.3, 5 min): 99.8; assay of esomeprazole and omeprazole according to pH ([1]; buffer pH 7.3, 10 min): 100.0; assay of esomeprazole and omeprazole according to pH ([1]; buffer pH 7.3, 15 min): 99.9; assay of esomeprazole and omeprazole according to pH ([1]; buffer pH 7.3, 30 min): 99.8; assay of esomeprazole and omeprazole according to pH ([1]; buffer pH 7.3, 45 min): 99.8; assay of esomeprazole and omeprazole according to pH ([1]; buffer pH 7.3, 60 min): 99.8; assay of esomeprazole and omeprazole according to pH ([1]; buffer pH 7.3, 120 min): 99.86; assay of esomeprazole and omeprazole according to pH ([1]; buffer pH 7.5, 5 min): 100.5; assay of esomeprazole and omeprazole according to pH ([1]; buffer pH 7.5, 10 min): 99.7; assay of esomeprazole and omeprazole according to pH ([1]; buffer pH 7.5, 15 min): 99.7; assay of esomeprazole and omeprazole according to pH ([1]; buffer pH 7.5, 30 min): 99.4; assay of esomeprazole and omeprazole according to pH ([1]; buffer pH 7.5, 45 min): 99.2; assay of esomeprazole and omeprazole according to pH ([1]; buffer pH 7.5, 60 min): 98.9; assay of esomeprazole and omeprazole according to pH ([1]; buffer pH 7.5, 120 min): 98.2; assay of esomeprazole and omeprazole according to pH ([1]; buffer pH 8.0, 15 min): 99.7; assay of esomeprazole and omeprazole according to pH ([1]; buffer pH 8.0, 30 min): 99.6; assay of esomeprazole and omeprazole according to pH ([1]; buffer pH 8.0, 45 min): 99.5; assay of esomeprazole and omeprazole according to pH ([1]; buffer pH 8.0, 60 min): 99.5; assay of esomeprazole and omeprazole according to pH ([1]; buffer pH 8.0, 120 min): 98.6

**Q.** With `COc1ccc2[nH]c([S@@+]([O-])Cc3ncc(C)c(OC)c3C)nc2c1` [S-omeprazole, (S)-5-methoxy-2-[(4-methoxy-3,5-dimethyl-2-pyridinyl)-methyl]sulfinyl-1H-benzimidazol] as the compound, how does the “assay of esomeprazole and omeprazole according to pH” value (from here on “assay”) ([1]; buffer pH 4.0, 5 min) read?
**A.** 64.1

**Q.** And the “assay” value ([1]; buffer pH 4.0, 10 min)?
**A.** 31.0

**Q.** What about the “assay” value ([1]; buffer pH 4.0, 15 min) of the same compound?
**A.** 15.9

**Q.** What about the “assay” value ([1]; buffer pH 4.0, 30 min) of the same compound?
**A.** 6.9

**Q.** And the “assay” value ([1]; buffer pH 4.0, 45 min)?
**A.** 1.7

**Q.** What about the “assay” value ([1]; buffer pH 4.0, 60 min) of the same compound?
**A.** 0.9

**Q.** What about the “assay” value ([1]; buffer pH 4.0, 120 min) of the same compound?
**A.** 0.1

**Q.** What about the “assay” value ([1]; buffer pH 6.0, 5 min) of the same compound?
**A.** 74.4

**Q.** What about the “assay” value ([1]; buffer pH 6.0, 10 min) of the same compound?
**A.** 72.8

**Q.** What about the “assay” value ([1]; buffer pH 6.0, 15 min) of the same compound?
**A.** 71.0

**Q.** And the “assay” value ([1]; buffer pH 6.0, 30 min)?
**A.** 68.9

**Q.** And the “assay” value ([1]; buffer pH 6.0, 45 min)?
**A.** 66.3

**Q.** What about the “assay” value ([1]; buffer pH 6.0, 60 min) of the same compound?
**A.** 63.6

**Q.** And the “assay” value ([1]; buffer pH 6.0, 120 min)?
**A.** 54.9

**Q.** What about the “assay” value ([1]; buffer pH 6.8, 5 min) of the same compound?
**A.** 95.6

**Q.** And the “assay” value ([1]; buffer pH 6.8, 10 min)?
**A.** 90.8

**Q.** What about the “assay” value ([1]; buffer pH 6.8, 15 min) of the same compound?
**A.** 90.5

**Q.** What about the “assay” value ([1]; buffer pH 6.8, 30 min) of the same compound?
**A.** 89.7

**Q.** What about the “assay” value ([1]; buffer pH 6.8, 45 min) of the same compound?
**A.** 88.9

**Q.** What about the “assay” value ([1]; buffer pH 6.8, 60 min) of the same compound?
**A.** 88.3

**Q.** And the “assay” value ([1]; buffer pH 6.8, 120 min)?
**A.** 86.2

**Q.** And the “assay” value ([1]; buffer pH 7.0, 5 min)?
**A.** 99.6

**Q.** And the “assay” value ([1]; buffer pH 7.0, 10 min)?
**A.** 99.0

**Q.** And the “assay” value ([1]; buffer pH 7.0, 15 min)?
**A.** 99.3

**Q.** What about the “assay” value ([1]; buffer pH 7.0, 30 min) of the same compound?
**A.** 98.9

**Q.** What about the “assay” value ([1]; buffer pH 7.0, 45 min) of the same compound?
**A.** 98.7

**Q.** What about the “assay” value ([1]; buffer pH 7.0, 60 min) of the same compound?
**A.** 98.1

**Q.** And the “assay” value ([1]; buffer pH 7.0, 120 min)?
**A.** 96.8

**Q.** And the “assay” value ([1]; buffer pH 7.3, 5 min)?
**A.** 100.1

**Q.** What about the “assay” value ([1]; buffer pH 7.3, 10 min) of the same compound?
**A.** 100.1

**Q.** And the “assay” value ([1]; buffer pH 7.3, 15 min)?
**A.** 100.0

**Q.** And the “assay” value ([1]; buffer pH 7.3, 30 min)?
**A.** 100.0

**Q.** What about the “assay” value ([1]; buffer pH 7.3, 45 min) of the same compound?
**A.** 100.0

**Q.** And the “assay” value ([1]; buffer pH 7.3, 60 min)?
**A.** 100.0

**Q.** And the “assay” value ([1]; buffer pH 7.3, 120 min)?
**A.** 99.90

**Q.** What about the “assay” value ([1]; buffer pH 7.5, 5 min) of the same compound?
**A.** 99.4

**Q.** And the “assay” value ([1]; buffer pH 7.5, 10 min)?
**A.** 99.3

**Q.** And the “assay” value ([1]; buffer pH 7.5, 15 min)?
**A.** 99.2

**Q.** What about the “assay” value ([1]; buffer pH 7.5, 30 min) of the same compound?
**A.** 99.1

**Q.** And the “assay” value ([1]; buffer pH 7.5, 45 min)?
**A.** 99.3

**Q.** And the “assay” value ([1]; buffer pH 7.5, 60 min)?
**A.** 99.1

**Q.** And the “assay” value ([1]; buffer pH 7.5, 120 min)?
**A.** 98.2

**Q.** What about the “assay” value ([1]; buffer pH 8.0, 15 min) of the same compound?
**A.** 101.1

**Q.** What about the “assay” value ([1]; buffer pH 8.0, 30 min) of the same compound?
**A.** 100.9

**Q.** What about the “assay” value ([1]; buffer pH 8.0, 45 min) of the same compound?
**A.** 100.7

**Q.** What about the “assay” value ([1]; buffer pH 8.0, 60 min) of the same compound?
**A.** 100.7

**Q.** And the “assay” value ([1]; buffer pH 8.0, 120 min)?
**A.** 100.0

**Q.** For `O=C([O-])O.[Na+]` [sodium bi-carbonate, sodium bicarbonate], which “dose of sodium bicarbonate that can neutralize 200 mL of simulated gastric juice to show neutral pH” value ([2]; 200 mL simulated gastric juice) is on record?
**A.** at least 600 mg

**Q.** And the “pH of simulated gastric juice” value ([2]; sodium bicarbonate 500 mg)?
**A.** 5.77

**Q.** What about the “pH of simulated gastric juice” value ([2]; sodium bicarbonate 600 mg) of the same compound?
**A.** 6.51

**Q.** What about the “pH of simulated gastric juice” value ([2]; sodium bicarbonate 700 mg) of the same compound?
**A.** 7.30

**Q.** And the “pH of simulated gastric juice” value ([2]; sodium bicarbonate 800 mg)?
**A.** 7.30

**Q.** And the “pH of simulated gastric juice” value ([2]; sodium bicarbonate 900 mg)?
**A.** 7.31

**Q.** What about the “pH of simulated gastric juice” value ([2]; sodium bicarbonate 1,000 mg) of the same compound?
**A.** 7.37

**Q.** And the “pH of simulated gastric juice” value ([2]; sodium bicarbonate 1,100 mg)?
**A.** 7.38

**Q.** What about the “pH of simulated gastric juice” value ([2]; sodium bicarbonate 1,200 mg) of the same compound?
**A.** 7.38

**Q.** And the “pH of simulated gastric juice” value ([2]; sodium bicarbonate 1,300 mg)?
**A.** 7.40
